Assay in all cases: NCI-60 cell line screen, 48 h
The test system of test [1] is XF 498 CNS.
In test [2] the test system is KM20L2 colon.
Test [3] deals with DMS 114 small cell lung.
Test [4] has as its system SNB-78 CNS.
Test [5] concerns DLD-1 colon.
In test [6] the test system is BT-549 breast.
For test [7], the system named is MCF7 breast.
In test [8] the test system is DU-145 prostate.
Test [9] deals with HS 578T breast.
In test [10] the test system is MDA-MB-231 breast.
Test [11] deals with T-47D breast.

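Cultured in 96-well plates, cells were exposed to test compound for 48 hours across five concentrations. Here, GI50 denotes the concentration required for 50% inhibition of growth. TGI marks complete inhibition of growth.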

The compound `c1cnc2c(c1)-n1cccc1C1(CCSCC1)NN2` had a TGI in test [1] of more than 100 µM.
Regarding `CCN(CC)CCn1c2c3ccccc3ccc2c2oc(=O)c3ccccc3c21`, the TGI in test [1], in test [2], in [3], in [4] and in [5] was more than 100 µM in each case.
Take `COc1cc(-c2cc(=O)c3cc4c(cc3[nH]2)OCO4)cc(OC)c1OC`: the TGI in test [1], in test [2], in [3], in test [4] and in [5] was more than 100 µM throughout. Besides, the GI50 in test [2] is more than 100 µM; in test [3], 83.8 µM.
For `O=[N+]([O-])c1c(/C=N/Nc2ccccc2)oc(-c2ccc3c(c2)OCO3)c1-c1ccc2c(c1)OCO2`, the TGI was more than 100 µM in test [1], 37.5 µM in test [2], more than 100 µM in test [3] and more than 100 µM in [5].
With `CCN(CC)CCCCC1CCN(CC(=O)N2CC(C)C(=O)Nc3ccccc32)CC1` (stereo unspecified), the TGI in test [2], in [3] and in test [5] was more than 100 µM throughout.
As for `Cc1cc2c(CC(=O)O)[nH]nc2c(C(=O)O)c1C`, the TGI in [1], in test [2], in test [4] and in test [5] was more than 100 µM in each case.
For `C=CCNC(=S)N1CC(C)C(=O)Nc2ccccc21` (stereo unspecified), the TGI in test [1], in [2], in test [3] and in test [4] was more than 100 µM in each case.
With `CN1CCN(CCSC2Cc3cc(Cl)ccc3Sc3ccccc32)CC1` (stereo unspecified), the TGI in test [1] was 9.57 µM; in [2], 4.08 µM; in [3] it was 11.2 µM; in test [5], 10.4 µM.
For the compound `Cc1nc2ccc(C(F)(F)F)cc2nc1Nc1ccc(Cl)c(Cl)c1`, the values for the TGI in test [1], in [2] and in test [4] were 22.2 µM, 13.2 µM and 34.4 µM, respectively.
`CCOC(=O)CCC(=O)C1c2cccc(O)c2C(=O)c2c(O)cccc21`: the TGI in [1] stood at 0.551 µM; in [3], 1.65 µM; in test [5], 3.21 µM.
As for `C=CCCCCCCCCCCCC1CCC(CC)N1` (stereo unspecified), the TGI in [2] is 15.8 µM; in test [3], 14.7 µM; in [4], 37.8 µM; in [5] it was 15.5 µM.
For `N#CCCc1nc2ccc(Br)cc2c(=O)n1CCO`, the TGI in test [1], in test [3], in test [4] and in [5] was more than 100 µM each time.
On to `COC1=CC23C=CC1[C@@H](c1ccccc1)C2=C(C)C(=O)N3C(=O)NC1CCCCC1` (stereo partly specified), for which the values for the TGI in [2] and in test [4] were 50.7 µM and 70.1 µM, respectively.
With `COc1cc(OC)c(/C=C/c2ccc3ccccc3[n+]2C)c(OC)c1`, the GI50 in test [6] is 0.401 µM; in test [7], 0.841 µM; in test [8] it was 0.944 µM; in test [9], 0.638 µM; in test [10], 1.76 µM; in [11], 0.294 µM. In addition, the TGI is 7.3 µM in [6]; 10.6 µM in test [7]; 15.3 µM in test [8]; 19.3 µM in test [9]; 12.1 µM in [10]; 2.83 µM in test [11].
For `CC(C)=CC(C(O)c1ccccc1)S(=O)(=O)c1nccn1C` (stereo unspecified), the TGI in [1], in [2], in [3] and in [5] was more than 100 µM each time.
Turning to `Cc1nn(C(=O)c2ccccc2O)c2c1C(c1ccccc1)SC(N)=N2` (stereo unspecified), the TGI in [6], in [7], in test [8], in [9], in [10] and in test [11] was more than 10 µM throughout.
In the case of `CN(C)CCNc1nc2ccccc2c2c1c1c(n2Cc2ccccc2)-c2ccccc2C1=O`, the GI50 in test [6] is 16.7 µM; in test [7] it was 15.1 µM; in test [8] it was 15 µM; in test [9], 11.3 µM; in [10], 16.5 µM; in test [11], 19.4 µM. In addition, the TGI in [6] amounted to 32.9 µM; in [7], 33.6 µM; in test [8] it was 30.6 µM; in test [9], 31.5 µM; in test [10] it was 32.1 µM; in [11] it was 50.6 µM.
As for `O=C(Nc1ccccc1C(F)(F)F)c1cccc(NC2=C(Cl)C(=O)N(Cc3ccccc3)C2=O)c1`, the GI50 is 8.25 µM in [6]; 2.68 µM in test [7]; 8.19 µM in test [8]; 8.27 µM in test [9]; 3.86 µM in test [10]; 62.7 µM in test [11]. Also, the TGI in [6] was 45.1 µM; in [7], 27.1 µM; in test [8] it was 44 µM; in test [9], 28.5 µM; in [10] it was 21.4 µM; in [11], more than 100 µM.
As for `O=c1ccn(C2OC(CO)C(O)C2O)c(=O)[nH]1` (stereo unspecified), the TGI in test [6], in test [7], in test [8], in test [9], in test [10] and in [11] was more than 1000 µM in each case. Besides, the GI50 in test [7], in test [9] and in test [11] was more than 1000 µM in each case.
As for `O=C1c2cc(Br)ccc2-c2c1c1ccc([N+](=O)[O-])cc1c(=O)n2CCCCl`, the GI50 was 2.98 µM in test [6]; less than 0.01 µM in [7]; 0.0849 µM in [8]; 19.5 µM in test [9]; 12.9 µM in test [10]; 0.0144 µM in [11]. The TGI was more than 63.8 µM in [6]; more than 44 µM in [7]; 20.1 µM in [8]; more than 72.5 µM in test [9]; more than 96.1 µM in test [10]; 18.8 µM in test [11].
Take `Cc1c(CCCl)c(=O)n2c([nH]c3ccccc32)c1C#N`: the TGI in test [6] was 3.63 µM; in test [7], more than 10 µM; in [8] it was 5.63 µM; in test [9], 4.89 µM; in test [10], 3.09 µM; in test [11], 2.97 µM.

Source of the values: PubChem BioAssay (NCI).
